From patent US9790209B2, “Kinase inhibitors” (Respivert Limited, priority 2012, dated 2017)
Where two headings read alike, the source gives them in different places.

What was measured:
[1] = molecular target: p38 MAPKα (Homo sapiens (Human), UniProt Q16539); test: p38 MAPKα enzyme inhibition (Method 2), Z-LYTE FRET; type: biochemical
Protocol: (§1) The enzyme inhibitory activities of compounds disclosed herein are determined by FRET using synthetic peptides labelled with both donor and acceptor fluorophores (Z-LYTE, Invitrogen Ltd., Paisley, UK).
The inhibitory activities of test compounds against the p38 MAPKα isoform (MAPK14: Invitrogen), are evaluated indirectly by determining the level of activation/phosphorylation of the down-stream molecule, MAPKAP-K2. The p38 MAPKα protein (80 ng/mL, 2.5 μL) is mixed with the test compound (2.5 μL of either 4 μg/mL, 0.4 μg/mL, 0.04 μg/mL or 0.004 μg/mL) for 2 hr at RT. […] The mixture is incubated for 1 hr at RT. Development reagent (protease, […]) is added for 1 hr prior to detection in a fluorescence microplate reader (Varioskan® Flash, ThermoFisher Scientific).
This method follows the same steps as Method 1 above, but utilises a higher concentration of the p38 MAPKα protein (2.5 μL of 200 ng/mL protein instead of 2.5 μL of 80 ng/mL protein) for mixing with the test compound.
(§2) In all cases, the site-specific protease cleaves non-phosphorylated peptide only and eliminates the FRET signal. Phosphorylation levels of each reaction are calculated using the ratio of coumarin emission (donor) over fluorescein emission (acceptor), for which high ratios indicate high phosphorylation and low ratios indicate low phosphorylation levels. The percentage inhibition of each reaction is calculated relative to non-inhibited control and the 50% inhibitory concentration (IC50 value) is then calculated from the concentration-response curve.

[2] = molecular target: c-Src (Homo sapiens (Human), UniProt P12931); test: c-Src enzyme inhibition, Z-LYTE FRET; type: biochemical
Protocol: as §1
(§3) The inhibitory activities of compounds of the invention against c-Src and Syk enzymes (Invitrogen), are evaluated in a similar fashion to that described hereinabove. The relevant enzyme (3000 ng/mL or 2000 ng/mL respectively, 2.5 μL) is incubated with the test compound (either 4 μg/mL, 0.4 μg/mL, 0.04 μg/mL, or 0.004 μg/mL, 2.5 μL each) for 2 hr at RT. The FRET peptides (8 μM. 2.5 μL), and appropriate ATP solutions (2.5 μL, 800 μM for c-Src, and 60 μM ATP for Syk) are then added to the enzymes/compound mixtures and incubated for 1 hr. Development reagent (protease, 5 μL) is added for 1 hr prior to detection in a fluorescence microplate reader (Varioskan® Flash, ThermoFisher Scientific).
as §2

[3] = molecular target: Syk (Homo sapiens (Human), UniProt P43405); test: Syk enzyme inhibition, Z-LYTE FRET; type: biochemical
Protocol: as §1, §3, §2

[4] = molecular target: GSK3α (Homo sapiens (Human), UniProt P49840); test: GSK 3α enzyme inhibition (Method 2), Z-LYTE FRET; type: biochemical
Protocol: as §1
The inhibitory activities of compounds of the invention against the GSK 3α enzyme isoform (Invitrogen), are evaluated by determining the level of activation/phosphorylation of the target peptide. The GSK3-α protein (500 ng/mL, 2.5 μL) is mixed with the test compound (2.5 μL at either 4 μg/mL, 0.4 μg/mL, 0.04 μg/mL, or 0.004 μg/mL) for 2 hr at RT. The FRET peptide (8 μM, 2.5 μL), which is a phosphorylation target for GSK3α, and ATP (40 μM, 2.5 μL) are then added to the enzyme/compound mixture and the resulting mixture incubated for 1 hr. Development reagent (protease, 5 μL) is added for 1 hr prior to detection in a fluorescence microplate reader (Varioskan® Flash, ThermoFisher Scientific).
as §2
This method follows the same steps as Method 1 above, but utilises a shorter period of mixing of the test compound (105 minutes instead of 2 hours) with the GSK3-α protein.

[5] = system: d-U937 cells; test: LPS-induced TNFα/IL-8 release in d-U937 cells; type: cell-based; details: Homo sapiens, dU937, LPS-stimulated d-U937 cells
Protocol: U937 cells, a human monocytic cell line, are differentiated to macrophage-type cells by incubation with phorbol myristate acetate (PMA; 100 ng/mL) for 48 to 72 hr. Cells are pre-incubated with final concentrations of test compound for 2 hr and are then stimulated with 0.1 μg/mL of LPS (from E. Coli: 0111:B4, Sigma) for 4 hr. The supernatant is collected for determination of TNFα and IL-8 concentrations by sandwich ELISA (Duo-set, R&D systems). The inhibition of TNFα production is calculated as a percentage of that achieved by 10 μg/mL of BIRB796 at each concentration of test compound by comparison against vehicle control. The relative 50% effective concentration (REC50) is determined from the resultant concentration-response curve. The inhibition of IL-8 production is calculated at each concentration of test compound by comparison with vehicle control. The 50% inhibitory concentration (IC50) is determined from the resultant concentration-response curve.

[6] = system: PBMCs; test: LPS-induced TNFα/IL-8 release in PBMC cells; type: cell-based; details: Homo sapiens, LPS-stimulated PBMCs
Protocol: Peripheral blood mononuclear cells (PBMCs) from healthy subjects are separated from whole blood using a density gradient (Lymphoprep, Axis-Shield Healthcare). The PBMCs are seeded in 96 well plates and treated with compounds at the desired concentration for 2 hours before addition of 1 ng/mL LPS (Escherichia Coli 0111:B4 from Sigma Aldrich) for 24 hours under normal tissue culture conditions (37° C., 5% CO2). The supernatant is harvested for determination of IL-8 and TNFα concentrations by sandwich ELISA (Duo-set, R&D systems) and read on the fluorescence microplate reader (Varioskan® Flash, ThermoFisher Scientific). The concentration at 50% inhibition (IC50) of IL-8 and TNFα production is calculated from the dose response curve.

[7] = system: PBMCs; test: IL-2 and IFN gamma release in CD3/CD28 stimulated PBMC cells; type: cell-based; details: Homo sapiens
Protocol: PBMCs from healthy subjects are separated from whole blood using a density gradient (Lymphoprep, Axis-Shield Healthcare). Cells are added to a 96 well plate pre-coated with a mixture of CD3/CD38 monoclonal antibodies (0.3 μg/mL eBioscience and 3 μg/mL BD Pharmingen respectively). Compound at the desired concentration is then added to the wells and the plate left for 3 days under normal tissue culture conditions. Supernatants are harvested and IL-2 and IFN gamma release determined by Sandwich ELISA (Duo-set, R&D System). The IC50 is determined from the dose response curve.

[8] = system: HT29 cells; test: IL-1-induced IL-8 release in HT29 cells; type: cell-based; details: Homo sapiens, HT-29, IL-1β-stimulated HT29 cells, read-out: IC50 Values for Inhibition of Cytokine Release HT29 cells IL-8
Protocol: HT29 cells, a human colon adenocarcinoma cell line, are plated in a 96 well plate (24 hrs) and pre-treated with compounds at the desired concentration for 2 hours before addition of 5 ng/mL of IL-1β (Abcam) for 24 hours. Supernatants are harvested for IL-8 quantification by Sandwich ELISA (Duo-set, R&D System). The IC50 is determined from the dose response curve.

[9] = IL-8, read-out: IC50 Values for Inhibition of Cytokine Release dU937 cells IL-8
[10] = TNFα (method describes REC50 relative to BIRB796), read-out: IC50 Values for Inhibition of Cytokine Release dU937 cells TNFα
[11] = IL-8, read-out: IC50 Values for Inhibition of Cytokine Release PBMCs IL-8
[12] = IL-2, read-out: IC50 Values for Inhibition of Cytokine Release PBMCs IL-2
[13] = IFNγ, read-out: IC50 Values for Inhibition of Cytokine Release PBMCs IFNγ

Chain of p38 MAPKα (Q16539 whole entry): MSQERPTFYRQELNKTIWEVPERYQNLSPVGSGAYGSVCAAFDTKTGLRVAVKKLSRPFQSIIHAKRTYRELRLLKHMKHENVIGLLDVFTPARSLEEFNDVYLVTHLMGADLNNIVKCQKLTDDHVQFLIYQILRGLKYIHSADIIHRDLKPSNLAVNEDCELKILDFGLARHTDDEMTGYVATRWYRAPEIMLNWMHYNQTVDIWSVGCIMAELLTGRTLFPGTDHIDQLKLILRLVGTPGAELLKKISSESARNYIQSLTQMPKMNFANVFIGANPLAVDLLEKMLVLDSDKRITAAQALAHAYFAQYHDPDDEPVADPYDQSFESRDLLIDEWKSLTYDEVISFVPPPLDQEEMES
Chain of c-Src (P12931 whole entry, looked up): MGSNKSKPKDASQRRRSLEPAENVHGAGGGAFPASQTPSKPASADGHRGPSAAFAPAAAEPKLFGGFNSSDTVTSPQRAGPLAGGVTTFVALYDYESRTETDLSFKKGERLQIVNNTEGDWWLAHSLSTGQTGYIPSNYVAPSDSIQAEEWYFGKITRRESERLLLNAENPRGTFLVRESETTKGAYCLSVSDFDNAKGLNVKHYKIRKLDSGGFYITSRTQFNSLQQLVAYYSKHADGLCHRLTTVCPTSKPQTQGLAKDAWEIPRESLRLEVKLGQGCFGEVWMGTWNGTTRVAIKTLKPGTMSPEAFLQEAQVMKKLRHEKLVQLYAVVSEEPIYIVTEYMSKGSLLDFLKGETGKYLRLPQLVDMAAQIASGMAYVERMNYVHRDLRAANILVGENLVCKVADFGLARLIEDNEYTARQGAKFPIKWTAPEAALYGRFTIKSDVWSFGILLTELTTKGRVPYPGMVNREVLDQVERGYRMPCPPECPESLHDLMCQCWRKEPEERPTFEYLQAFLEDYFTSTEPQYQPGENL
Chain of GSK3α (P49840 whole entry): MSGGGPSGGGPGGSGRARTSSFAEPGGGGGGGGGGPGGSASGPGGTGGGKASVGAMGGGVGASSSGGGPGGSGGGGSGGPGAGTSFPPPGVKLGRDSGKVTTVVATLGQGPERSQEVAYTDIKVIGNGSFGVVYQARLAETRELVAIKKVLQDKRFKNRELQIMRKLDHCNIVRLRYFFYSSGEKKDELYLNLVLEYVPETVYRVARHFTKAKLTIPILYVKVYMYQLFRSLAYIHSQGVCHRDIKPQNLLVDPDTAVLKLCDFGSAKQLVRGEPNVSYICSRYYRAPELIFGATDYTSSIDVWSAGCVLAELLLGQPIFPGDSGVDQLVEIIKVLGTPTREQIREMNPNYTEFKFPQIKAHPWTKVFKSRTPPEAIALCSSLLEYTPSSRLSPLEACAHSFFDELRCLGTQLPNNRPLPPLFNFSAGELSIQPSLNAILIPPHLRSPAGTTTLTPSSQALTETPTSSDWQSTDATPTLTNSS

Compound | IC50 [1] [nM] | IC50 [2] [nM] | IC50 [3] [nM] | IC50 [4] [nM] | IC50 [5, 9] [nM] | IC50 [5, 10] [nM] | IC50 [8] [nM] | IC50 [6, 11] [nM] | IC50 ([6]; TNFα, assay (b), read-out: IC50 for inhibition of TNFα release in PBMCs) [nM] | IC50 [7, 12] [nM] | IC50 [7, 13] [nM]
C#CC(C)(C)c1cc(NC(=O)Nc2ccc(Oc3ccnc(Nc4ccccc4)n3)c3ccccc23)n(-c2ccc(C)cc2)n1 [Example 1, 1-(3-(2-Methylbut-3-yn-2-yl)-1-(p-tolyl)-1H-pyrazol-5-yl)-3-(4-((2-(phenylamino)pyrimidin-4-yl)oxy)naphthalen-1-yl)urea] | 85 | 60 | > 1000 | > 10000 | 3.2 | 1.4 |  | 1.6 | 2.5 |  | 
C#CC(C)(C)c1cc(NC(=O)Nc2ccc(Oc3ccnc(Nc4cc(C(=O)NCCN5CCOCC5)cc(C(F)(F)F)c4)n3)c3ccccc23)n(-c2ccc(C)cc2)n1 [Example 12, 3-((4-((4-(3-(3-(2-Methylbut-3-yn-2-yl)-1-(p-tolyl)-1H-pyrazol-5-yl)ureido)naphthalen-1-yl)oxy)pyrimidin-2-yl)amino)-N-(2-morpholinoethyl)-5-(trifluoromethyl)benzamide] | 214 | 74 | 275 | 2310 | 1.2 |  | 3.7 | 2.1 |  | 171 | 2.6
C#Cc1cc(Nc2nccc(Oc3ccc(NC(=O)Nc4cc(C(C)(C)C#C)nn4-c4ccc(C)cc4)c4ccccc34)n2)cc(C(=O)NCCN2CCOCC2)c1 [Example 15, 3-Ethynyl-5-((4-((4-(3-(3-(2-methylbut-3-yn-2-yl)-1-(p-tolyl)-1H-pyrazol-5-yl)ureido)naphthalen-1-yl)oxy)pyrimidin-2-yl)amino)-N-(2-morpholinoethyl)benzamide] | 67 | 16 | 40 | 3590 | 1.3 |  | 2.5 | 0.8 |  | 69.3 | 2.4

Second part, led by results:

IC50 [1] [nM] | IC50 [2] [nM] | IC50 [3] [nM] | IC50 [4] [nM] | IC50 [5, 9] [nM] | IC50 [5, 10] [nM] | IC50 [8] [nM] | Compound | IC50 [6, 11] [nM] | IC50 ([6]; TNFα, assay (b), read-out: IC50 for inhibition of TNFα release in PBMCs) [nM] | IC50 [7, 12] [nM] | IC50 [7, 13] [nM]
87 | 203 | 113 | > 10000 | 4.4 | 2.8 | 6 | C#CC(C)(C)c1cc(NC(=O)Nc2ccc(Oc3ccnc(Nc4ccc5c(c4)NC(=O)C5)n3)c3ccccc23)n(-c2ccc(C)cc2)n1 [Example 3, 1-(3-(2-Methylbut-3-yn-2-yl)-1-(p-tolyl)-1H-pyrazol-5-yl)-3-(4-((2-((2-oxoindolin-6-yl)amino)pyrimidin-4-yl)oxy)naphthalen-1-yl)urea] | 2.1 |  | 0.7 | 
273 | 37 | 203 | 5440 | 1.8 |  | 3.6 | C#CC(C)(C)c1cc(NC(=O)Nc2ccc(Oc3ccnc(Nc4cc(OC(F)(F)F)cc(C(=O)NCCN5CCOCC5)c4)n3)c3ccccc23)n(-c2ccc(C)cc2)n1 [Example 14, 3-((4-((4-(3-(3-(2-Methylbut-3-yn-2-yl)-1-(p-tolyl)-1H-pyrazol-5-yl)ureido)naphthalen-1-yl)oxy)pyrimidin-2-yl)amino)-N-(2-morpholinoethyl)-5-(trifluoromethoxy)benzamide] | 1.4 |  | 170 | 2
